Compound in one test: NC(=O)CCCCC1CCSS1 [lipoamide]
In words: thermal stability z-score vs DMSO; higher = more thermally stabilized by treatment. Particulars: HeLa, lipoamide concentration 100 µM. On the procedure:
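Cellular thermal proteome profiling in HeLa cells. Cells were treated with 100 µM lipoamide for 1 h, with or without 1 mM arsenate for a further 1 h, then heated to ten temperatures (37-66.3 °C), and soluble protein was quantified by TMT mass spectrometry relative to 0.1% DMSO controls. The thermal stability score (sum of log2 fold changes minus the abundance score) was transformed to a z-score; mean of n = 3 experiments.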

Compound in another test: O=[As]([O-])(O)O.[K+] [potassium arsenate]
Described as above. To be noted: HeLa; arsenate concentration 1 mM. On the procedure:
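Cellular thermal proteome profiling in HeLa cells treated with 1 mM arsenate for 1 h (DMSO pretreatment), heated to ten temperatures (37-66.3 °C). Soluble protein was quantified by TMT mass spectrometry relative to DMSO controls; the thermal stability score was transformed to a z-score; mean of n = 3 experiments.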

Where [1] appears, read: arsenate co-treatment: 1 mM arsenate 1 h.
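Note: each temperature applied for 3 min, abundance score taken as mean log2 fold change at the two lowest temperatures, z-score obtained by mean subtraction and division by SD.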

Chain of UniProt P98082 (P98082 whole entry): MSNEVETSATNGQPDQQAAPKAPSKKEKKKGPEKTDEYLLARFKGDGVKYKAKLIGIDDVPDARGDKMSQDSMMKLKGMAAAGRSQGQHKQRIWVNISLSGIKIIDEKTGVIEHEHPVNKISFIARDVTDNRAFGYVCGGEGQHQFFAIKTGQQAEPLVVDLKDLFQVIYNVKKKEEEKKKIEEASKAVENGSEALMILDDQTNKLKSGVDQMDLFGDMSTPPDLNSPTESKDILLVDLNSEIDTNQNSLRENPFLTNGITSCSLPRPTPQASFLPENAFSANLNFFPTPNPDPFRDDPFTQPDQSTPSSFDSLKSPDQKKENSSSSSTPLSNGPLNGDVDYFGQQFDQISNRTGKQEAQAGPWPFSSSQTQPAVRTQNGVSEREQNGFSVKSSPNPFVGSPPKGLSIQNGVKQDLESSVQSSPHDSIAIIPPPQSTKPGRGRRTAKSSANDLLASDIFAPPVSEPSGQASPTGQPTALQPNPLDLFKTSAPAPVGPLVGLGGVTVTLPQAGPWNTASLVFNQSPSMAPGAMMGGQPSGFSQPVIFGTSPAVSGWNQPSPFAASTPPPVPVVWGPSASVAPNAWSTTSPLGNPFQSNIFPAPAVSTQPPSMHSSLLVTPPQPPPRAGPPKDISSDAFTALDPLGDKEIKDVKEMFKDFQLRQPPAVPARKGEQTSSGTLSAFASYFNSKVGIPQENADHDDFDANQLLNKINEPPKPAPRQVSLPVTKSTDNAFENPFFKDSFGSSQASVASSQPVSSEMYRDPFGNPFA
Chain of UniProt Q13490 (Q13490 whole entry): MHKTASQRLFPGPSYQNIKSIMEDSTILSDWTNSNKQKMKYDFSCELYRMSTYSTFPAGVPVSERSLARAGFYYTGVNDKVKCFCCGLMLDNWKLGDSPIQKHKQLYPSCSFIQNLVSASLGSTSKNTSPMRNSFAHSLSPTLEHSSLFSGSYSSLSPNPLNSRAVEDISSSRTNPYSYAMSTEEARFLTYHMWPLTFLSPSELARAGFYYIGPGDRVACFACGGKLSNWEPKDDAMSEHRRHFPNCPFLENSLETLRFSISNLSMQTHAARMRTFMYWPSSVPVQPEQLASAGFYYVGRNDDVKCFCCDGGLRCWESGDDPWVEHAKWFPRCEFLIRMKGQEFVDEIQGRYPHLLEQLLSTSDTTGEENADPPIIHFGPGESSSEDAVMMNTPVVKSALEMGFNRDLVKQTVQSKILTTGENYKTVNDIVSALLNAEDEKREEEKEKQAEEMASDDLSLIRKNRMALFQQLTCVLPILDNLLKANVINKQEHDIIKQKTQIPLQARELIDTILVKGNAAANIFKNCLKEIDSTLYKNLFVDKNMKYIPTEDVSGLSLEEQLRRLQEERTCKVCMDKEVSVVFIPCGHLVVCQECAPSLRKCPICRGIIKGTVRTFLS
Chain of UniProt Q9NUT2 (Q9NUT2 whole entry): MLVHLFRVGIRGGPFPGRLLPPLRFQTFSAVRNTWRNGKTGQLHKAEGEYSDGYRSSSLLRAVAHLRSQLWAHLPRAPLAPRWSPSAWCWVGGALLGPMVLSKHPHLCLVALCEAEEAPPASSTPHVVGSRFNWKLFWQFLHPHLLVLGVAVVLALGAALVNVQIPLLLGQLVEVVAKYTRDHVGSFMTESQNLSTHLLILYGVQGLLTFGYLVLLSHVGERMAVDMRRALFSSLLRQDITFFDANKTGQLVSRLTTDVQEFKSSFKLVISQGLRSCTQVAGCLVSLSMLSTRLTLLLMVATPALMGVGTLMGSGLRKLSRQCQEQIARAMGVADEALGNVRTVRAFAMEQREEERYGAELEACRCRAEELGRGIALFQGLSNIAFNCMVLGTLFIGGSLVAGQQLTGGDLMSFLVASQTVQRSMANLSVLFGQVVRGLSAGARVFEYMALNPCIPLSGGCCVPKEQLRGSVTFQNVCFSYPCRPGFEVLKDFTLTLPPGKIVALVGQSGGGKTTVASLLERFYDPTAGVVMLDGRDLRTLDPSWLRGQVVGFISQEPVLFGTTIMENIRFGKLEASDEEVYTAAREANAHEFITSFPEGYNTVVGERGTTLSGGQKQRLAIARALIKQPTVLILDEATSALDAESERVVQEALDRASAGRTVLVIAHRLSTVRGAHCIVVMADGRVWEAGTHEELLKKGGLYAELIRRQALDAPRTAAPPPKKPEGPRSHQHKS
Chain of UniProt O94763 (O94763 whole entry): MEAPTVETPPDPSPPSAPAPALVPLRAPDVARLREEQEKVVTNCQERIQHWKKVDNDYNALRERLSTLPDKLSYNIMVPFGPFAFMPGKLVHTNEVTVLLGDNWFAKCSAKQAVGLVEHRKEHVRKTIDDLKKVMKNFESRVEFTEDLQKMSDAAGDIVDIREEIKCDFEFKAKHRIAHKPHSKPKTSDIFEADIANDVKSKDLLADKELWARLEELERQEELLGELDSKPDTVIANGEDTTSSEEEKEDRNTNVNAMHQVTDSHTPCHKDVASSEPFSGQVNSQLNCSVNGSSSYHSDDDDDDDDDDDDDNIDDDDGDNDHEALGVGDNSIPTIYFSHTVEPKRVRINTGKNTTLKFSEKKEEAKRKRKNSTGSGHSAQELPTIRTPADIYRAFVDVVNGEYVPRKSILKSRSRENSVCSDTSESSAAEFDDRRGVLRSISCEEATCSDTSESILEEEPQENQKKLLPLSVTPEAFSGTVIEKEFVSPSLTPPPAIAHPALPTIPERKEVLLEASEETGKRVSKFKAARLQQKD
Chain of UniProt Q8TCT9 (Q8TCT9 whole entry): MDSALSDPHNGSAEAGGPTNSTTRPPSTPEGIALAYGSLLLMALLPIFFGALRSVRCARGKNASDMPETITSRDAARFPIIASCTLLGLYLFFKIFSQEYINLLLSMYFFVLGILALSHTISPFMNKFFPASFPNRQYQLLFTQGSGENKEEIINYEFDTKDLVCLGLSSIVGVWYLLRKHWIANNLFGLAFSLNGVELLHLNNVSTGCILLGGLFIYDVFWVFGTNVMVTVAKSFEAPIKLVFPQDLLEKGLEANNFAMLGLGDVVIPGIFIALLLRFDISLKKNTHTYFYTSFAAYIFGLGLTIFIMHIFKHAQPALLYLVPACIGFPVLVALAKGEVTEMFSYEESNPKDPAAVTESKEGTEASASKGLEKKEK
Chain of UniProt Q5VTB9 (Q5VTB9 whole entry): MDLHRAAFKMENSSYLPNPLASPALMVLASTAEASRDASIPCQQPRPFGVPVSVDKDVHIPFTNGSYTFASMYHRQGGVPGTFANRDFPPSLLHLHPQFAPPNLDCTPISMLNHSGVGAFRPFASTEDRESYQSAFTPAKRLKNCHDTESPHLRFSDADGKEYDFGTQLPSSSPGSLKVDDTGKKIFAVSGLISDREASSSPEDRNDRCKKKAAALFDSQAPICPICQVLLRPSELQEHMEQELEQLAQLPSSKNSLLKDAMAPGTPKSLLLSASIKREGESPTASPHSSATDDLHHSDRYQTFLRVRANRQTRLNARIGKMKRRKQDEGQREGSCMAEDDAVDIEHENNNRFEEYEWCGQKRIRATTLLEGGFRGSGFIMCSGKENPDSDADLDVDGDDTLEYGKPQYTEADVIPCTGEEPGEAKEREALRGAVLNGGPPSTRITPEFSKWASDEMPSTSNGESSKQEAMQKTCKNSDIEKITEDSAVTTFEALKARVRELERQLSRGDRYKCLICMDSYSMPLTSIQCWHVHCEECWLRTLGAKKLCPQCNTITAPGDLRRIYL
Chain of UniProt Q9ULW0 (Q9ULW0 whole entry): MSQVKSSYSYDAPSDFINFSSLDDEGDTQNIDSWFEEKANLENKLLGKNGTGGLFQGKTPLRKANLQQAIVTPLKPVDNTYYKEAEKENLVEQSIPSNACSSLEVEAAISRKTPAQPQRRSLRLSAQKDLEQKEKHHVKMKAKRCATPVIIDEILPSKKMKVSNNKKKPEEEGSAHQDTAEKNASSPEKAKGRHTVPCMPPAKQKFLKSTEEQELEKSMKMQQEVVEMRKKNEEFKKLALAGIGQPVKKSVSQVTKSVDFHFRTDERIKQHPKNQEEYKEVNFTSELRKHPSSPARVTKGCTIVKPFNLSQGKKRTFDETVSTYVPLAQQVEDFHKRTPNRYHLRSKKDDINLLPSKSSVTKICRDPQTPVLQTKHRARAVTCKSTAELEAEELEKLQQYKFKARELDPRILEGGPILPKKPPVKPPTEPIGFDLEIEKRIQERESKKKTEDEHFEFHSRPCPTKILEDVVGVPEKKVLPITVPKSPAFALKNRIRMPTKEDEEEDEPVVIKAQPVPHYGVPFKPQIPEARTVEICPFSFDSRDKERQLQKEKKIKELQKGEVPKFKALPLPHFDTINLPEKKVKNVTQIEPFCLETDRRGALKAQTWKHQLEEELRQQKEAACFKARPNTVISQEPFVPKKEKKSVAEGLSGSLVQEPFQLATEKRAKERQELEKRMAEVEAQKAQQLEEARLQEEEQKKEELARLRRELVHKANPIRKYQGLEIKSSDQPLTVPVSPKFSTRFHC
Chain of UniProt Q96N21 (Q96N21 whole entry): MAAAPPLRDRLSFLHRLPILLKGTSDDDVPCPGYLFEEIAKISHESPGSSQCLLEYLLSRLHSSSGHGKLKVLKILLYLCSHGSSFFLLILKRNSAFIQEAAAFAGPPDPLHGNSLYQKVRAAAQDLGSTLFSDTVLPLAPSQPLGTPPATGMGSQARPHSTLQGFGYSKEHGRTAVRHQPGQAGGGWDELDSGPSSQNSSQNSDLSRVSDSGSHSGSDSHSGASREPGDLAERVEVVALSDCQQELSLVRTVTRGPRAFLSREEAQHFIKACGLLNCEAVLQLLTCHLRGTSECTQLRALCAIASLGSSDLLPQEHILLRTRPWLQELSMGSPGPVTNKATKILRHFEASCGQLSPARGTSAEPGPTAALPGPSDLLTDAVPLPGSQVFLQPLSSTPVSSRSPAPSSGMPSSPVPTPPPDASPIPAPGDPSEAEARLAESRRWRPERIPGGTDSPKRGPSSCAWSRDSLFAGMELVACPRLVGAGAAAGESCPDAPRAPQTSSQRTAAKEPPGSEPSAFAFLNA
Chain of UniProt Q9BUE6 (Q9BUE6 whole entry): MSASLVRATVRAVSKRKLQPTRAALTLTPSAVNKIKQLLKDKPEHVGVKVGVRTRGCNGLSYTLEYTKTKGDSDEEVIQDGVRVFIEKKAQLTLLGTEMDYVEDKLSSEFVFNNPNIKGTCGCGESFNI

With FNIP1 (UniProt Q8TF40), the thermal stability z-score with lipoamide (setting [1]) was 0.272; with lipoamide (arsenate co-treatment: none), 0.0643; in the test with potassium arsenate it was 0.000327.

Take CDAN1 (UniProt Q8IWY9): the figures for the thermal stability z-score in the test with lipoamide (setting [1]), with lipoamide (arsenate co-treatment: none) and in the test with potassium arsenate were -0.217, -0.235 and -0.113, respectively.

Consider RPL19 (UniProt P84098), for which the values for the thermal stability z-score with lipoamide (setting [1]), with lipoamide (arsenate co-treatment: none) and in the test with potassium arsenate were 0.269, -0.195 and -1.08, respectively.

As to ZNF143 (UniProt P52747), the thermal stability z-score with lipoamide (setting [1]) was -0.135; in the test with lipoamide (arsenate co-treatment: none), -0.0231; with potassium arsenate it was 0.0928.

Take FNBP1 (UniProt Q96RU3): the thermal stability z-score with lipoamide (setting [1]) amounted to 0.146; with lipoamide (arsenate co-treatment: none), 0.0859; in the test with potassium arsenate, 0.336.

Consider DAB2 (UniProt P98082), for which the thermal stability z-score was 0.216 with lipoamide (setting [1]), 0.404 with lipoamide (arsenate co-treatment: none) and 1.73 in the test with potassium arsenate.

NBEAL1 (UniProt Q6ZS30): the thermal stability z-score is 0.108 with lipoamide (setting [1]), -0.0292 with lipoamide (arsenate co-treatment: none) and -0.119 with potassium arsenate.

For ISCA1 (UniProt Q9BUE6), the thermal stability z-score with lipoamide (setting [1]) is -0.00815; with lipoamide (arsenate co-treatment: none), 0.577; with potassium arsenate, 0.178.

Turning to SCD (UniProt O00767), the results for the thermal stability z-score in the test with lipoamide (setting [1]), with lipoamide (arsenate co-treatment: none) and with potassium arsenate were -1.45, -2.34 and 1.66, respectively.

For the target RWDD1 (UniProt Q9H446), the figures for the thermal stability z-score with lipoamide (setting [1]), in the test with lipoamide (arsenate co-treatment: none) and with potassium arsenate were 0.432, 0.421 and 0.471, respectively.

Regarding MAP4K4 (UniProt O95819), the thermal stability z-score in the test with lipoamide (setting [1]) is -0.599; with lipoamide (arsenate co-treatment: none) it was -0.0959; with potassium arsenate, 0.303.

As to MSH2 (UniProt P43246), the results for the thermal stability z-score with lipoamide (setting [1]), with lipoamide (arsenate co-treatment: none) and with potassium arsenate were -0.271, -0.178 and -0.565, respectively.

With ILF3 (UniProt Q12906), the figures for the thermal stability z-score with lipoamide (setting [1]), in the test with lipoamide (arsenate co-treatment: none) and with potassium arsenate were 1.39, 0.801 and -1.11, respectively.

As to SH3D19 (UniProt Q5HYK7), the thermal stability z-score with lipoamide (setting [1]) is 0.277; in the test with lipoamide (arsenate co-treatment: none), 0.225; with potassium arsenate, 0.228.

Regarding LRCH4 (UniProt O75427), the thermal stability z-score was 0.0394 in the test with lipoamide (setting [1]), -0.101 in the test with lipoamide (arsenate co-treatment: none) and -0.13 with potassium arsenate.

For FAM83G (UniProt A6ND36), the thermal stability z-score with lipoamide (setting [1]) was -0.123; with lipoamide (arsenate co-treatment: none), 0.00979; with potassium arsenate, 0.138.

In the case of ABCB8 (UniProt Q9NUT2), the results for the thermal stability z-score with lipoamide (setting [1]), with lipoamide (arsenate co-treatment: none) and in the test with potassium arsenate were -0.84, -0.813 and -1.1, respectively.

Regarding DPM1 (UniProt O60762), the figures for the thermal stability z-score in the test with lipoamide (setting [1]), with lipoamide (arsenate co-treatment: none) and in the test with potassium arsenate were 0.673, 0.429 and 0.383, respectively.

Take NOL6 (UniProt Q9H6R4): the thermal stability z-score in the test with lipoamide (setting [1]) was 0.328; with lipoamide (arsenate co-treatment: none), -0.0357; with potassium arsenate, -0.592.

Regarding POFUT1 (UniProt Q9H488), the thermal stability z-score with lipoamide (setting [1]) was -3.78; in the test with lipoamide (arsenate co-treatment: none), -3.17; with potassium arsenate, 1.06.

For the target EPN1 (UniProt Q9Y6I3), the thermal stability z-score with lipoamide (setting [1]) turned out to be 0.241; in the test with lipoamide (arsenate co-treatment: none) it was 0.408; with potassium arsenate, 0.491.

THEM4 (UniProt Q5T1C6): the thermal stability z-score with lipoamide (setting [1]) was -0.175; in the test with lipoamide (arsenate co-treatment: none), -0.235; in the test with potassium arsenate, -0.626.

GPS1 (UniProt Q13098): the thermal stability z-score with lipoamide (setting [1]) was 0.881; in the test with lipoamide (arsenate co-treatment: none), 0.892; with potassium arsenate, 0.904.

Regarding STK25 (UniProt O00506), the thermal stability z-score was 0.466 in the test with lipoamide (setting [1]), -0.862 with lipoamide (arsenate co-treatment: none) and 0.496 in the test with potassium arsenate.

For the target IRAK1 (UniProt P51617), the thermal stability z-score with lipoamide (setting [1]) was -0.153; with lipoamide (arsenate co-treatment: none) it was -0.074; in the test with potassium arsenate it was -0.328.

Take BIRC2 (UniProt Q13490): the thermal stability z-score with lipoamide (setting [1]) is -0.731; with lipoamide (arsenate co-treatment: none), -0.56; in the test with potassium arsenate, -0.483.

Take DOHH (UniProt Q9BU89): the values for the thermal stability z-score with lipoamide (setting [1]), with lipoamide (arsenate co-treatment: none) and in the test with potassium arsenate were -0.0847, 0.18 and 0.721, respectively.

As to RAD1 (UniProt O60671), the thermal stability z-score in the test with lipoamide (setting [1]) stood at 1.26; with lipoamide (arsenate co-treatment: none) it was 0.445; with potassium arsenate it was 1.31.

In the case of U2AF1L5|U2AF1, the results for the thermal stability z-score with lipoamide (setting [1]), in the test with lipoamide (arsenate co-treatment: none) and with potassium arsenate were -0.511, -0.0589 and -1.4, respectively.

Consider PDCD2 (UniProt Q16342), for which the values for the thermal stability z-score with lipoamide (setting [1]), with lipoamide (arsenate co-treatment: none) and in the test with potassium arsenate were -0.0711, -0.181 and -0.371, respectively.

With HM13 (UniProt Q8TCT9), the thermal stability z-score with lipoamide (setting [1]) is 0.0446; with lipoamide (arsenate co-treatment: none), -0.0484; with potassium arsenate it was 0.759.

With ENTHD2 (UniProt Q96N21), the values for the thermal stability z-score in the test with lipoamide (setting [1]), in the test with lipoamide (arsenate co-treatment: none) and in the test with potassium arsenate were -0.00439, -0.0659 and -0.479, respectively.

RPL18 (UniProt Q07020): the results for the thermal stability z-score with lipoamide (setting [1]), with lipoamide (arsenate co-treatment: none) and with potassium arsenate were 0.497, -0.313 and -0.424, respectively.

On to URI1 (UniProt O94763), for which the thermal stability z-score was -0.325 in the test with lipoamide (setting [1]), -0.193 in the test with lipoamide (arsenate co-treatment: none) and 0.52 with potassium arsenate.

For the target RNF220 (UniProt Q5VTB9), the thermal stability z-score was -0.19 in the test with lipoamide (setting [1]), -0.015 with lipoamide (arsenate co-treatment: none) and -0.283 in the test with potassium arsenate.

As for FBXL18 (UniProt Q96ME1), the values for the thermal stability z-score with lipoamide (setting [1]), in the test with lipoamide (arsenate co-treatment: none) and with potassium arsenate were 0.241, 0.119 and -0.711, respectively.

With RBM47, the thermal stability z-score with lipoamide (setting [1]) was 0.133; with lipoamide (arsenate co-treatment: none), -0.661; in the test with potassium arsenate, -0.629.

For TPX2 (UniProt Q9ULW0), the results for the thermal stability z-score with lipoamide (setting [1]), in the test with lipoamide (arsenate co-treatment: none) and in the test with potassium arsenate were 0.967, 0.322 and 0.448, respectively.

Regarding UIMC1 (UniProt Q96RL1), the thermal stability z-score is -0.168 in the test with lipoamide (setting [1]), 0.424 with lipoamide (arsenate co-treatment: none) and 0.872 with potassium arsenate.

For MANEAL (UniProt Q5VSG8), the thermal stability z-score in the test with lipoamide (setting [1]) is -0.276; with lipoamide (arsenate co-treatment: none) it was 0.109; with potassium arsenate it was 0.736.

With EIF3F (UniProt O00303), the results for the thermal stability z-score with lipoamide (setting [1]), with lipoamide (arsenate co-treatment: none) and with potassium arsenate were -0.117, -0.0503 and -0.156, respectively.

VPS50 (UniProt Q96JG6): the figures for the thermal stability z-score with lipoamide (setting [1]), with lipoamide (arsenate co-treatment: none) and in the test with potassium arsenate were -0.564, -0.541 and 0.134, respectively.

Consider RBM15 (UniProt Q96T37), for which the thermal stability z-score with lipoamide (setting [1]) was -0.454; with lipoamide (arsenate co-treatment: none) it was -0.0697; with potassium arsenate it was -0.321.
